Laboratory results published in patent US20110117026A1, “METHODS AND COMPOSITIONS FOR THE DELIVERY OF BIOACTIVE COMPOUNDS” (priority 2008, published 2011).
Each block holds one compound with its values, some of them ahead of it. Non-standard residues stand in square brackets, D forms with d. Residues, ends and D or L forms follow the SMILES beside them. No end group written: not given here. pY = N[C@@H](Cc1ccc(OP(=O)(O)O)cc1)C(=O)O

Key:
H460 cells [1] = experiment: Apoptosis of H460 cells by flow cytometry (annexin V, propidium iodide); type: cell-based, human; conditions: 48 hours after treatment
Description: Cells were stained with propidium iodide (PI) and Annexin V-FITC at 48 hours after treatment with a PEGylated LPH with AA or without AA.
(§1) The effect of the delivered EV peptide on the growth of H460 cells was then investigated.

[2] = molecular target: T1, STAT5b phosphorylation by EGFR (Homo sapiens, UniProt P51692); experiment: Cell-free inhibition of STAT5b phosphorylation in H460 cell lysate (Western blot); type: biochemical
T1 construct: In a cell-free system containing the lysate of H460 cells treated with EGF; endogenous in cells; host or cells: H460 cell lysate (cells treated with EGF)
T1 sequence (P51692 1-787): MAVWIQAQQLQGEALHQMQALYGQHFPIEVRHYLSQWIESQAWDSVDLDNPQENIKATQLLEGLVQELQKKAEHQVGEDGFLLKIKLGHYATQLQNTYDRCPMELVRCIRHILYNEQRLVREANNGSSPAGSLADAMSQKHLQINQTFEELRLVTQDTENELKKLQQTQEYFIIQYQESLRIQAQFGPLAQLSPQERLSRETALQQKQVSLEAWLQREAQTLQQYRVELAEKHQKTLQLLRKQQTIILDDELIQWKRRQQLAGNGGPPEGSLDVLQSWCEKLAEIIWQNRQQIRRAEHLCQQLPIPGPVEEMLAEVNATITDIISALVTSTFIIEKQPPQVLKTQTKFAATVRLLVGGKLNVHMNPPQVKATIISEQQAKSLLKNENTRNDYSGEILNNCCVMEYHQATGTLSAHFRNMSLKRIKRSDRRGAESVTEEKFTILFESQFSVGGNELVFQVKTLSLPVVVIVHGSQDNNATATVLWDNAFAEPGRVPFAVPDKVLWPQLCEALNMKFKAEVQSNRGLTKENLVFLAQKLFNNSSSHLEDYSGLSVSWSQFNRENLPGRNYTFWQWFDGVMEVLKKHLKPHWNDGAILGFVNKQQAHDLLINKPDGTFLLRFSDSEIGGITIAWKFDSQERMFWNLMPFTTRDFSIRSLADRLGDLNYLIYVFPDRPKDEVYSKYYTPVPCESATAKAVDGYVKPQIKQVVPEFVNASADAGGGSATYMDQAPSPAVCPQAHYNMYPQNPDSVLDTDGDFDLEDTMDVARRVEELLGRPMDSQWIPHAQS
Description: FIGS. 20A and 20B show the inhibition of STAT5b phosphorylation by the EV peptide (SEQ ID NO: 3) in a tumor cell lysate. Increasing amounts of EV peptide was added to the assay mixture containing H460 cell lysate. The degree of STAT5b phosphorylation was detected by Western blot (FIG. 20A) using a phosphorylated STAT5b specific monoclonal antibody. The data was analyzed by Image J software to obtain the IC50 (FIG. 20B).
Studies were initiated by selecting a highly anionic peptide that can block an important intracellular signaling event. The phosphorylation and activation of the signal transducer and activator of transcription 5b (STAT5b) by the epidermal growth factor receptor (EGFR) tyrosine kinase was chosen as the targeted signaling event. STAT proteins are cytoplasmic proteins that function as secondary messengers and transcription factors. The STAT proteins have a phosphotyrosine binding domain of src-homology 2 (SH2). The potential of the SH2 domain to interact with a number of signaling proteins allow the STATs to interfere with multiple cell signaling pathways (Mohamad and Mohammad (2006) JK-Practitioner 13(4):215-221). STAT activation has been implicated in human cancer cells, including the activation of upstream receptor tyrosine kinases, such as the EGFR, as well as nonreceptor kinases. […]

H460 cells [3] = experiment: Inhibition of H460 cell growth; type: cell-based, human; conditions: EV peptide 5 μM
Description: H460 cells were treated with the EV peptide (5 μM) formulated in LPH-PEG-AA, LPH-PEG, or as a free peptide.
as §1

H460 cells [4] = experiment: Uptake of Alexa488 EV peptide by H460 cells; type: cell-based, human; conditions: Alexa488-labeled EV peptide, 4 h
Description: After treating H460 cells for four hours with an Alexa488 conjugated EV peptide formulated in LPH, PEG-LPH, or PEG-AA-LPH, cells were washed, treated with Triton X-100, and the fluorescence of the cell extract was determined with a fluorometer.
The uptake of the peptide by H460 cells was first studied in vitro. The EV peptide was fluorescently labeled with Alexa488 at the N-terminal α-NH2 group, purified by gel filtration, and formulated in the nanoparticles. […] Free EV peptide was not taken up by H460 cells at all.

recombinant caspase 3 = molecular target: T2, recombinant caspase 3 (Homo sapiens, UniProt P42574); experiment: Cleavage of imaging peptide by caspase 3 (Cy5.5/Cy7 FRET, nanofluorometer); type: biochemical
T2 sequence (P42574 29-175 limits assumed): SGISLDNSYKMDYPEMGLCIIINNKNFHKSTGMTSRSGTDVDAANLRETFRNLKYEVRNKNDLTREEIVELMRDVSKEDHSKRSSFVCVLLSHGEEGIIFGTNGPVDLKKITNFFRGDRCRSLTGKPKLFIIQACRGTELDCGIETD
T2 sequence (P42574 176-277 limits assumed): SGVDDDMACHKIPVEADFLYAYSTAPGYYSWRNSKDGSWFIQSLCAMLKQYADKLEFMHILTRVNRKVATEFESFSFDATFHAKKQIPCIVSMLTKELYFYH
Description: The fluorescence emission profiles of untreated peptide (FIG. 27A), peptide treated with 60 units of caspase-3 for 2 hours (FIG. 27B), peptide treated with 0.1 mg BSA (FIG. 27C), and peptide treated with 60 units caspase-3 that was pre-incubated with 10 μM caspase-3 inhibitor for one hour (FIG. 27D) were measured with a nanofluorometer.
The fluorescence spectrum of the peptide was recorded with a nanofluorometer which only requires a 2 μL sample volume.

STAT5b = molecular target: T3, STAT5b (Homo sapiens, UniProt P51692); experiment: STAT5b phosphorylation in intact H460 cells (ELISA); type: cell-based; conditions: 3.4 μM peptide, 24 h
T3 construct: endogenous in cells; host or cells: H460 cells
T3 sequence (P51692 1-787): T1 sequence (P51692 1-787)
Description: FIG. 22 provides a graph depicting the inhibition of STAT5b phosphorylation by the EV peptide. At 24 hours after treating H460 cells with LPH, LPH-PEG or LPH-PEG-AA comprising the EV (SEQ ID NO: 3) or EE (SEQ ID NO: 4) peptide or the free peptide at 3.4 μM, the reduction of phosphorylated Stat5b was assayed with an ELISA.
Next, the pharmacodynamics of the EV peptide was studied in vitro.

Compound: CC(C)C[C@H](NC(=O)[C@H](CCC(=O)O)NC(=O)[C@H](Cc1ccccc1)NC(=O)[C@H](Cc1ccc(OP(=O)(O)O)cc1)NC(=O)[C@H](CCC(=O)O)NC(=O)[C@H](CCC(=O)O)NC(=O)[C@H](CCC(=O)O)NC(=O)[C@@H](N)CCC(=O)O)C(=O)N[C@H](C(=O)O)C(C)C [EV peptide, EEEE(pY)FELV] (H-EEEE[pY]FELV-OH; C-terminus assumed)
apoptosis, in words (H460 cells [1]): without any effect | IC50 [2]: 2500 nM | effect on growth of H460 cells (H460 cells [3]): no effect | uptake by H460 cells (H460 cells [4]): not taken up

ratio of Cy5.5/Cy7 (recombinant caspase 3; after incubation with recombinant caspase 3 (60 units, 2 hours)): 2.70 | ratio of Cy5.5/Cy7 (recombinant caspase 3; intact (untreated) peptide): 1.74
Compound: Ac-KDEVDCDEVDKDEVDC (also: Cy5.5 on Cys, Cy7 on Lys) [imaging peptide, caspase 3 FRET reporter]

effect on STAT5b phosphorylation, in words (STAT5b): did not show any significant effect
Compound: E(pY)ELFEEVE (E[pY]ELFEEVE) [EE peptide, reference compound]
